Patent US8772299B2, “Phenyl piperazine compounds, pharmaceutical composition including the same and use thereof” (SK Biopharmaceuticals Co., Ltd., priority 2008, dated 2014)
Counter-ions that a name gives are not always drawn.

The compounds below were run against T1, Serotonin 1A (5-HT1A) receptor (Rattus norvegicus, UniProt P19327) (assay: Serotonin 1A (5-HT1A) receptor inhibition assay, [3H]8-OH-DPAT binding to rat cortex membranes). Conditions: 10 nM test compound; 0.92 nM [3H]8-OH-DPAT; rat cortex homogenate; 60 min at 25° C.
T1 construct: The cortex tissue were homogenized in 30 volumes of ice-cold 50 mM Tris-HCl buffer; from tissue; host or cells: Sprague-Dawley rat brain cortex membranes
T1 sequence (P19327 1-422): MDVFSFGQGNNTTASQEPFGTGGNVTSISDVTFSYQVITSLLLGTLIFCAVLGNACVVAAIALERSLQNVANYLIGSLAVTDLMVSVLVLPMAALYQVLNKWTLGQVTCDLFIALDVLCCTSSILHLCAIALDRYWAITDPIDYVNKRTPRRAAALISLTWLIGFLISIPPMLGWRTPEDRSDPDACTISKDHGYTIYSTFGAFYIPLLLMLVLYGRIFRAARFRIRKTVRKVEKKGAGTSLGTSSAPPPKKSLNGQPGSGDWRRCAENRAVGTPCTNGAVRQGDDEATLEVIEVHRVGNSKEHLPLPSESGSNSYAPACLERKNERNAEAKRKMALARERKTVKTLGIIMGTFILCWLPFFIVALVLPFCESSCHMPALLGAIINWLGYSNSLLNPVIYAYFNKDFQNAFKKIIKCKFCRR
Set-up: species or system Sprague-Dawley (SD) rats
Method: The method to test the ability of compounds to inhibit serotonin 1A(5-HT1A) receptors was using Hall. et al., J Neuro Chem., 1985, 44, p 1685-1696 with modification.
The Sprague-Dawley (SD) rats were killed by decapitation and their brains rapidly removed at 4° C. The cortex tissue were homogenized in 30 volumes of ice-cold 50 mM Tris-HCl buffer (pH7.4) using an ultra-turrax T8 and centrifuged at 48,000 g for 20 min. The supernatant was discarded and the pellet washed twice by resuspension in 20 volumes Tris-HCl and centrifugation, homogenized in 20 volumes Tris-HCl, and incubated at 37° C. for 10 min. Membranes were than collected by centrifugation and washed twice before final resuspension in 10 volumes of 50 mM Tris-HCl, pH7.4.
For binding assays, the incubation medium consisted of 162.5 ug of tissue homogenate, 0.92 nM of [3H]8-OH-DPAT and vehicle or 10 uM of 5-HT or 10 nM of test compounds per well. 5-HT and test compounds were dissolved in distilled water and incubation medium was 50 mM Tris(pH7.4 at room temperature). The assay plates (96 well) were incubated for 60 min at 25° C. The reaction was terminated by rapid filtration using a Tomtec harvester, through GF/C glassfibre filter with 5 times washes of Tris buffer. The radioactivity retained on the filters was counted by scintillation spectroscopy (MicroBeta TriLux, Wallac). The tests were triplicates. Percent inhibition was calculated as below equation.
Total binding is the value of vehicle treated group and specific binding is the values that deduct non-specific binding (i.e. the value of non-specific ligand, 5-HT).
`COc1ccccc1N1CCN(CCCCOc2ccc(CNc3cc(C)no3)cc2)CC1` [Example 46, (4-{4-[4-(2-methoxy-phenyl)-piperazin-1-yl]-butoxy}-benzyl)-(3-methyl-isoxazol-5-yl)-amine] was tested, and the inhibition at 0.01 µM was 64.6%. For `COc1ccccc1N1CCN(CCCCOc2ccc(Cn3nnnc3-c3ccccc3)cc2)CC1` [Example 16, 1-(2-methoxy-phenyl)-4-{4-[4-(5-phenyl-tetrazol-1-ylmethyl)-phenoxy]-butyl}-piperazine], the inhibition at 0.01 µM was 62.5%. `COc1ccccc1N1CCN(CCCCOc2ccc(Cn3ccnc3C)cc2)CC1` [Example 10, 1-(2-Methoxy-phenyl)-4-{4-[4-(2-methyl-imidazol-1-ylmethyl)-phenoxy]-butyl}-piperazine] showed an inhibition at 0.01 µM of 71.8%. In the case of `COc1ccccc1N1CCN(CCCCOc2ccc(CNc3nncs3)cc2)CC1` [Example 43, (4-{4-[4-(2-Methoxy-phenyl)-piperazin-1-yl]-butoxy}-benzyl)-[1,3,4]thiadiazol-2-yl-amine], the inhibition at 0.01 µM is reported as 95.6%. `CN1CCN(Cc2ccc(OCCCCN3CCN(c4ccccc4Cl)CC3)cc2)CC1` [Example 35] was tested, and the inhibition at 0.01 µM was 73.3%. For `COc1ccccc1N1CCN(CCCCOc2ccc(CNc3nccs3)cc2)CC1` [Example 22, (4-{4-[4-(2-methoxy-phenyl)-piperazin-1-yl]-butoxy}-benzyl)-thiazol-2-yl-amine], the inhibition at 0.01 µM was 53.4%. In the case of `Cc1nnn(Cc2ccc(OCCCCN3CCN(c4cccc(Cl)c4Cl)CC3)cc2)n1` [Example 38, 1-(2,3-Dichloro-phenyl)-4-{4-[4-(5-methyl-tetrazol-2-ylmethyl)-phenoxy]-butyl}-piperazine], the inhibition at 0.01 µM is reported as 29.4%. With `COc1ccccc1N1CCN(CCCCOc2ccc(CCn3nnc(C)n3)cc2)CC1` [Example 54, 1-(2-Methoxy-phenyl)-4-(4-{4-[2-(5-methyl-tetrazol-2-yl)-ethyl]-phenoxy}-butyl)-piperazine] the inhibition at 0.01 µM was 71%. `COc1ccccc1N1CCN(CCCCOc2ccc(CCn3nnnc3C)cc2)CC1` [Example 53, 1-(2-Methoxy-phenyl)-4-(4-{4-[2-(5-methyl-tetrazol-1-yl)-ethyl]-phenoxy}-butyl)-piperazine] gave an inhibition at 0.01 µM of 46%. `COc1ccccc1N1CCN(CCCCOc2ccc(CCn3nccn3)cc2)CC1` [Example 49, 1-(2-methoxy-phenyl)-4-{4-[4-(2-[1,2,3]triazol-2-yl-ethyl)-phenoxy]-butyl}-piperazine] was tested, and the inhibition at 0.01 µM was 45%. Compound `COc1ccccc1N1CCN(CCCCOc2cccc(Cn3nnnc3C)c2)CC1` [Example 27, 1-(2-methoxy-phenyl)-4-{4-[3-(5-methyl-tetrazol-1-ylmethyl)-phenoxy]-butyl}-piperazine] has an inhibition at 0.01 µM of 40.9%. In the case of `COc1ccccc1N1CCN(CCCCOc2ccc(Cn3cnnn3)cc2)CC1` [Example 3, 1-(2-methoxy-phenyl)-4-[4-(4-tetrazol-1-ylmethyl-phenoxy)-butyl]-piperazine], the inhibition at 0.01 µM is reported as 77.8%. `COc1ccccc1N1CCN(CCCCOc2ccc(Cn3nnc(C)n3)cc2)CC1` [Example 17, 1-(2-methoxy-phenyl)-4-{4-[4-(5-methyl-tetrazol-2-ylmethyl)-phenoxy]-butyl}-piperazine] was tested, and the inhibition at 0.01 µM was 56.4%. Work on `COc1ccccc1N1CCN(CCCCOc2cccc(Cn3ccnn3)c2)CC1` [Example 25, 1-(2-Methoxy-phenyl)-4-[4-(3-[1,2,3]triazol-1-ylmethyl-phenoxy)-butyl]-piperazine] yielded an inhibition at 0.01 µM of 45.2%. Work on `Clc1ccccc1N1CCN(CCCCOc2ccc(Cn3ccnn3)cc2)CC1` [Example 42, 1-(2-chloro-phenyl)-4-[4-(4-[1,2,3]triazol-1-ylmethyl-phenoxy)-butyl]-piperazine] yielded an inhibition at 0.01 µM of 36.2%. `COc1ccccc1N1CCN(CCCCOc2cccc(Cn3cncn3)c2)CC1` [Example 6, 1-(2-methoxy-phenyl)-4-[4-(3-[1,2,4]triazol-1-ylmethyl-phenoxy)-butyl]-piperazine hydrochloride] showed an inhibition at 0.01 µM of 50.1%. `COc1ccccc1N1CCN(CCCCOc2ccc(Cn3nnc4ccccc43)cc2)CC1` [Example 14, 1-(4-{4-[4-(2-Methoxy-phenyl)-piperazin-1-yl]-butoxy}-benzyl)-1H-benzotriazole] was tested, and the inhibition at 0.01 µM was 51.1%. Compound `COc1ccccc1N1CCN(CCCCOc2ccc(Cn3cnc4ccccc43)cc2)CC1` [Example 9, 1-(4-{4-[4-(2-methoxy-phenyl)-piperazin-1-yl]-butoxy}-benzyl)-1H-benzoimidazole] has an inhibition at 0.01 µM of 52.2%. Work on `COc1ccccc1N1CCN(CCCCOc2ccc(Cn3ncnn3)cc2)CC1` [Example 4, 1-(2-methoxy-phenyl)-4-[4-(4-tetrazol-2-ylmethyl-phenoxy)-butyl]-piperazine] yielded an inhibition at 0.01 µM of 75.9%. `COc1ccccc1N1CCN(CCCCOc2ccc(Cn3ncc4ccccc43)cc2)CC1` [Example 13, 1-(4-{4-[4-(2-Methoxy-phenyl)-piperazin-1-yl]-butoxy}-benzyl)-1H-indazole] was tested, and the inhibition at 0.01 µM was 50.4%. `COc1ccccc1N1CCN(CCCCOc2cccc(Cn3nnc(C)n3)c2)CC1` [Example 26, 1-(2-Methoxy-phenyl)-4-{4-[3-(5-methyl-tetrazol-2-ylmethyl)-phenoxy]-butyl}-piperazine] gave an inhibition at 0.01 µM of 47%. `COc1ccccc1N1CCN(CCCCOc2cccc(CN3CCOCC3)c2)CC1` [Example 29, 4-(3-{4-[4-(2-methoxy-phenyl)-piperazin-1-yl]-butoxy}-benzyl)-morpholine] gave an inhibition at 0.01 µM of 45.8%. For `COc1ccccc1N1CCN(CCCCOc2ccc(Cn3nnc(-c4ccccc4)n3)cc2)CC1` [Example 15, 1-(2-methoxy-phenyl)-4-{4-[4-(5-phenyl-tetrazol-2-ylmethyl)-phenoxy]-butyl}-piperazine], the inhibition at 0.01 µM was 23.5%. `Cc1nnnn1Cc1ccc(OCCCCN2CCN(c3cccc(Cl)c3Cl)CC2)cc1` [Example 37, 1-(2,3-Dichloro-phenyl)-4-{4-[4-(5-methyl-tetrazol-1-ylmethyl)-phenoxy]-butyl}-piperazine] gave an inhibition at 0.01 µM of 24.8%. With `Clc1ccccc1N1CCN(CCCCOc2ccc(Cn3cncn3)cc2)CC1` [Example 23, 1-(2-chloro-phenyl)-4-[4-(4-[1,2,4]triazol-1-ylmethyl-phenoxy)-butyl]-piperazine] the inhibition at 0.01 µM was 17.2%. Work on `Clc1cccc(N2CCN(CCCCOc3ccc(Cn4ccnn4)cc3)CC2)c1Cl` [Example 44, 1-(2,3-dichloro-phenyl)-4-[4-(4-[1,2,3]triazol-1-ylmethyl-phenoxy)-butyl]-piperazine] yielded an inhibition at 0.01 µM of 17.4%. `COc1ccccc1N1CCN(CCCCOc2ccc(CNc3cc(C)on3)cc2)CC1` [Example 45, (4-{4-[4-(2-Methoxy-phenyl)-piperazin-1-yl]-butoxy}-benzyl)-(5-methyl-isoxazol-3-yl)-amine] showed an inhibition at 0.01 µM of 73.8%. With `Clc1ccccc1N1CCN(CCCCOc2ccc(Cn3nccn3)cc2)CC1` [Example 56, 1-(2-chloro-phenyl)-4-[4-(4-[1,2,3]triazol-2-ylmethyl-phenoxy)-butyl]-piperazine] the inhibition at 0.01 µM was 24.3%. `Clc1ccccc1N1CCN(CCCCOc2ccc(Cn3ncnn3)cc2)CC1` [Example 31, 1-(2-chloro-phenyl)-4-[4-(4-tetrazol-2-ylmethyl-phenoxy)-butyl]-piperazine] showed an inhibition at 0.01 µM of 30.3%. For `COc1ccccc1N1CCN(CCCCOc2ccc(Cn3cnc(Cl)c3Cl)cc2)CC1` [Example 30, 1-{4-[4-(4,5-dichloro-imidazol-1-ylmethyl)-phenoxy]-butyl}-4-(2-methoxy-phenyl)-piperazine], the inhibition at 0.01 µM was 38.3%.

Each compound was assayed on mice (assay: Tail Suspension Test in Mice (TST)). Conditions: Mus musculus, reduction in immobility vs control group, 1 mg/kg, po.
Assay type: in vivo
Text: Tail Suspension Test in mice is the well-known animal model to determine antidepressant efficacy of compounds by checking escaping behavior and immobility time of mice. Mice treated with antidepressant drug show escaping behavior continuously comparing with control group.
The mice were mainly treated orally with the test compound dissolved in 30% PEG400 or with only 30% PEG400 as control. Tail of mouse is suspended to the rod of TST equipment and end of tail is fixed with sticky tape. Suspended mouse is incubated during 2 min for training and adaptation and after following 2 min, observe escaping behavior and check immobility time for 4 min. The potent ability of the compounds was determined as percent value of reduction in immobility comparing to control group as 100% baseline.
For `COc1ccccc1N1CCN(CCCCOc2ccc(CCn3nnc(C)n3)cc2)CC1` [Example 54, 1-(2-Methoxy-phenyl)-4-(4-{4-[2-(5-methyl-tetrazol-2-yl)-ethyl]-phenoxy}-butyl)-piperazine], the inhibition in vivo at 1 mg/kg was 31.8%. For `COc1ccccc1N1CCN(CCCCOc2ccc(CCn3nccn3)cc2)CC1` [Example 49, 1-(2-methoxy-phenyl)-4-{4-[4-(2-[1,2,3]triazol-2-yl-ethyl)-phenoxy]-butyl}-piperazine], the inhibition in vivo at 1 mg/kg was 34.3%.

Same assay, conditions: reduction in immobility vs control group, 30 mg/kg, po
With `CNCCC(Oc1ccc(C(F)(F)F)cc1)c1ccccc1` (stereo not shown) [Fluxetine, reference compound] the “% reduction” value was 49. at 30 mg/kg, po %. With `CN(C)CCC[C@@]1(c2ccc(F)cc2)OCc2cc(C#N)ccc21` [Estalopram, reference compound] the “% reduction” value was 47, at 30 mg/kg, po %.
